Assay results published in patent US20210149304A1, “PHOTOSENSITIVE RESIN COMPOSITION, CURED FILM, ELEMENT COMPRISING CURED FILM, ORGANIC EL DISPLAY DEVICE COMPRISING CURED FILM, METHOD FOR PRODUCING CURED FILM, AND METHOD FOR PRODUCING ORGANIC EL DISPLAY DEVICE” (TORAY INDUSTRIES, INC., priority 2017, published 2021).

Test: physchem
Details: not given
Experimental: The acid dissociation constant (pKa) is a logarithmic value of the inverse number of the acid dissociation constant pKa in a dilute aqueous solution at 25° C. In cases of multistep dissociation, the dissociation constant in the first step (that is, pKa1) is employed.
In the compound (E2) having a phenolic hydroxyl group indicating an acid dissociation constant pKa of 6.0 to 9.5 at 25° C., the acid dissociation constant (pKa) is a logarithmic value of the inverse number of the acid dissociation constant in a dilute aqueous solution at 25° C. In cases of multistep dissociation, the dissociation constant in the first step (that is, pKa1) is employed. […] The acid dissociation constant pKa is preferably not less than 6.3, more preferably not less than 6.6, still more preferably not less than 7.0.

Row | pKa | pKa (acid dissociation constant) | SMILES
1 | 12 | – | Cc1cc(CCC(=O)OCC(C)(C)C2OCC3(CO2)COC(C(C)(C)COC(=O)CCc2cc(C)c(O)c(C(C)(C)C)c2)OC3)cc(C(C)(C)C)c1O (stereo not drawn) [AO-80, 3,9-bis[1,1-dimethyl-2-[(3-tert-butyl-4-hydroxy-5-methylphenyl)propionyloxy]ethyl]-2,4,8,10-tetraoxaspiro[5.5]undecane]
2 | 8.5 | – | Oc1ccc(C(F)(F)F)cc1 [E(v), 4-(trifluoromethyl)phenol]
3 | 7.7 | – | O=C(c1ccc(O)cc1)c1ccc(O)cc1 [E(iii), 4,4′-dihydroxybenzophenone]
4 | 7.3 | – | O=C(c1ccccc1O)c1ccccc1O [E(iv), 2,2′-dihydroxybenzophenone]
5 | 11.6 | – | Cc1cc(O)c(C(C)(C)C)cc1C(C)CC(c1cc(C(C)(C)C)c(O)cc1C)c1cc(C(C)(C)C)c(O)cc1C (stereo not drawn) [AO-30, 1,1,3-tris(2-methyl-4-hydroxy-5-tert-butylphenyl)butane]
6 | 8.7 | 8.7 | Oc1ccc(C(c2ccc(O)cc2)(C(F)(F)F)C(F)(F)F)cc1 [E(i), bisphenol AF]

Row | SMILES | pKa | pKa (acid dissociation constant)
7 | CC(c1ccc(O)cc1)(c1ccc(O)cc1)c1ccc(O)cc1 [E(vi), 1,1,1-tris(4-hydroxyphenyl)ethane] | 10 | –

Same assay, conditions: at 25° C., dilute aqueous solution, first step pKa1

Row | SMILES | pKa (acid dissociation constant)
8 | O=S(=O)(c1ccc(O)cc1)c1ccc(O)cc1 [E(ii), bisphenol S] | 7.6
